Experimental data as given in patent US20220142165A1 (priority 2019, published 2022).

Legend:
[1] = test system: tomato late blight pathogen (Phylophihora infeslans); assay: whole plant or invertebrate; type: in vivo; conditions: Phytophthora infestans, 96 h, read-out: Control value
[2] = test system: grape downy mildew pathogen (Plasmopara viticola); assay: Grape downy mildew control test (Test Example 2); type: in vivo; conditions: 100 ppm by mass, sprayed on grape leaf disc (variety Chardonnay) before inoculation, blotch area ratio seven days after inoculation, 20° C.; for pest or weed control at 100 ppm: Plasmopara viticola, foliar, 168 h
Experimental: 5 parts by mass of the compound according to the present invention, 93.5 parts by mass of dimethylformamide, and 1.5 parts by mass of polyoxyethylene alkylaryl ether were mixed and dissolved to prepare an emulsion (I) containing 5% by mass of an active ingredient.
The control value was calculated according to the following formula.
Control value (%)=100−{blotch area ratio in treated area/blotch area ratio in untreated area}×100
Water was added to the emulsion (I) such that the concentration of the heterocyclic compound became 100 ppm by mass, and then the heterocyclic compound was dissolved therein to obtain a pharmaceutical solution. Then, the pharmaceutical solution was sprayed on a leaf disc of grape (variety “Chardonnay”) placed on agar in a 6-well plate. After air-drying, the leaf disc on which the pharmaceutical solution was sprayed was inoculated with zoosporangia of grape downy mildew pathogen (Plasmopara viticola) in a suspension by spraying the suspension thereon (treated area). As a control, a leaf disc on which no pharmaceutical solution was sprayed was inoculated in the same way as mentioned above (untreated area). The resultant leaf discs were left in a moist chamber at 20° C. Seven days after inoculation, the grape leaf discs were visually observed to measure the blotch area ratio to calculate the control value.

Row | Compound | pest or weed control at 125 ppm [1] [%] | pest or weed control at 100 ppm [2] [%] | Control value [2] | melting point [°C]
1 | CCCCC(Oc1ccc2ncsc2c1)c1nnco1 (stereo not drawn) [a-1, 2-(1-(benzo[d]thiazol-6-yloxy)pentyl)-1,3,4-oxadiazole] | ≥ 75 |  |  | 
2 | Fc1ccc(C(Oc2ccc3ncsc3c2)c2nnco2)nc1 (stereo not drawn) [a-8, 2-((benzo[d]thiazol-6-yloxy)(5-fluoropyridin-2-yl)methyl)-1,3,4-oxadiazole] | ≥ 75 | ≥ 75 |  | 
3 | Fc1ccc(C(Oc2cc(Br)c3ncsc3c2)c2nnco2)nc1 (stereo not drawn) [a-20, 2-((4-bromobenzo[d]thiazol-6-yloxy)(5-fluoropyridin-2-yl)methyl)-1,3,4-oxadiazole] | ≥ 75 | ≥ 75 |  | 
4 | CC#Cc1ccnc(C(Oc2ccc3ncsc3c2)c2nnco2)c1 (stereo not drawn) [a-45, 2-((benzo[d]thiazol-6-yloxy)(4-(prop-1-yn-1-yl)pyridin-2-yl)methyl)-1,3,4-oxadiazole] | ≥ 75 | ≥ 75 |  | 
5 | CCOCc1ccnc(C(Oc2ccc3ncsc3c2)c2nnco2)c1 (stereo not drawn) [a-75] |  |  | a-75% | 
6 | COCOCc1ccnc(C(Oc2ccc3nc(C)sc3c2)c2nnco2)c1 (stereo not drawn) [a-175] |  |  | a-175% | 
7 | Cn1cnc2ccc(OC(c3ccccc3)c3nnco3)cc21 (stereo not drawn) [b-3] | ≥ 75 |  |  | 114 to 116
8 | CCCCC(Oc1ccc2ncn(C)c2c1)c1nnco1 (stereo not drawn) [b-4] | ≥ 75 |  |  | 
9 | c1ccc(C(Nc2ccc3ncsc3c2)c2nnco2)cc1 (stereo not drawn) [b-5] | ≥ 75 |  |  | 
10 | Cn1cnc2ccc(OC(c3ccc(F)cn3)c3nnco3)cc21 (stereo not drawn) [b-6] | ≥ 75 |  |  | 
11 | Cn1cnc2ccc(OC(c3ccc(Cl)cc3)c3nnco3)cc21 (stereo not drawn) [b-7] | ≥ 75 |  |  | 
12 | Cn1cnc2c(F)cc(OC(c3ccc(F)cn3)c3nnco3)cc21 (stereo not drawn) [b-8] | ≥ 75 |  |  | 
13 | CO/N=C/c1ccnc(C(Oc2ccc3ncsc3c2)c2nnco2)c1 (stereo not drawn) [b-9] | ≥ 75 | ≥ 75 |  | 
14 | Fc1ccc(C(Oc2ccc3nnsc3c2)c2nnco2)nc1 (stereo not drawn) [b-10] | ≥ 75 | ≥ 75 |  | 141 to 142
15 | Clc1ccc(C(Oc2ccc3nnsc3c2)c2nnco2)nc1 (stereo not drawn) [b-12] | ≥ 75 | ≥ 75 |  | 133 to 134
16 | CO/N=C/c1ccnc(C(Oc2cc(Br)c3ncsc3c2)c2nnco2)c1 (stereo not drawn) [b-13] | ≥ 75 | ≥ 75 |  | 
17 | CCc1cc(OC(c2cc(/C=N/OC)ccn2)c2nnco2)cc2scnc12 (stereo not drawn) [b-14] | ≥ 75 | ≥ 75 |  | 
18 | CO/N=C/c1cc(C(Oc2ccc3ncsc3c2)c2nnco2)ncc1F (stereo not drawn) [b-15] | ≥ 75 | ≥ 75 |  | 136 to 138
19 | CO/N=C/c1ccnc(C(Oc2ccc3nnsc3c2)c2nnco2)c1 (stereo not drawn) [b-16] |  | ≥ 75 |  | 172 to 173
20 | CCO/N=C/c1ccnc(C(Oc2ccc3ncsc3c2)c2nnco2)c1 (stereo not drawn) [b-17] | ≥ 75 | ≥ 75 |  | 113 to 114

Row | Compound | pest or weed control at 125 ppm [1] [%] | pest or weed control at 100 ppm [2] [%] | Control value [2] | melting point [°C]
21 | CC(C)O/N=C/c1ccnc(C(Oc2ccc3ncsc3c2)c2nnco2)c1 (stereo not drawn) [b-18] | ≥ 75 | ≥ 75 |  | 
22 | FC(F)(F)CO/N=C/c1ccnc(C(Oc2ccc3ncsc3c2)c2nnco2)c1 (stereo not drawn) [b-19] |  | ≥ 75 |  | 128 to 130
23 | C#CCO/N=C/c1ccnc(C(Oc2ccc3ncsc3c2)c2nnco2)c1 (stereo not drawn) [b-20] | ≥ 75 | ≥ 75 |  | 
24 | CO/N=C/c1ccnc(C(Oc2ccc3nc(C)sc3c2)c2nnco2)c1 (stereo not drawn) [b-21] | ≥ 75 | ≥ 75 |  | 107 to 109
25 | CO/N=C/c1ccnc(C(Oc2cc(F)c3ncsc3c2)c2nnco2)c1 (stereo not drawn) [b-22] | ≥ 75 | ≥ 75 |  | 113 to 148
26 | CO/N=C/c1ccnc(C(Oc2cc(C)c3ncsc3c2)c2nnco2)c1 (stereo not drawn) [b-23] | ≥ 75 | ≥ 75 |  | 146 to 148
27 | CCCc1cc(OC(c2cc(/C=N/OC)ccn2)c2nnco2)cc2scnc12 (stereo not drawn) [b-24] | ≥ 75 | ≥ 75 |  | 80 to 82
28 | CO/N=C/c1ccnc(C(Oc2ccc3ncsc3c2)c2nnco2)n1 (stereo not drawn) [b-25] | ≥ 75 |  |  | 
29 | C#CCO/N=C/c1ccnc(C(Oc2ccc3nc(C)sc3c2)c2nnco2)c1 (stereo not drawn) [b-26] | ≥ 75 | ≥ 75 |  | 118 to 121
30 | CO/N=C/c1cc(C(Oc2ccc3nc(C)sc3c2)c2nnco2)ncc1F (stereo not drawn) [b-27] | ≥ 75 | ≥ 75 |  | 129 to 131
31 | CO/N=C/c1ccnc(C(Oc2ccc3nc(OC)sc3c2)c2nnco2)c1 (stereo not drawn) [b-28] |  | ≥ 75 |  | 
32 | CCc1nc2ccc(OC(c3cc(/C=N/OC)ccn3)c3nnco3)cc2s1 (stereo not drawn) [b-29] | ≥ 75 | ≥ 75 |  | 
33 | CC(C)=NOc1ccnc(C(Oc2ccc3ncsc3c2)c2nnco2)c1 (stereo not drawn) [b-33] | ≥ 75 | ≥ 75 |  | 
34 | CNc1nc2ccc(OC(c3cc(/C=N/OC)ccn3)c3nnco3)cc2s1 (stereo not drawn) [b-36] | ≥ 75 | ≥ 75 |  | 
35 | CO/N=C/c1cc(C(Oc2ccc3ncsc3c2)c2nnco2)ncc1Cl (stereo not drawn) [b-37] | ≥ 75 | ≥ 75 |  | 
36 | CO/N=C\c1cc(C(Oc2ccc3ncsc3c2)c2nnco2)ncc1F (stereo not drawn) [b-38] | ≥ 75 | ≥ 75 |  | 
37 | CO/N=C/c1cc(C(Oc2ccc3ncsc3c2)c2nnco2)ncc1Br (stereo not drawn) [b-39] | ≥ 75 | ≥ 75 |  | 
38 | CO/N=C/c1cc(C(Oc2ccc3ncsc3c2)c2nnco2)ncc1C#N (stereo not drawn) [b-40] | ≥ 75 | ≥ 75 |  | 129 to 131
39 | CO/N=C/c1cc(C(Oc2ccc3ncsc3c2)c2nnco2)ncc1SC (stereo not drawn) [b-41] |  | ≥ 75 |  | 
40 | CO/N=C/c1cc(C(Oc2ccc3nc(Br)sc3c2)c2nnco2)ncc1F (stereo not drawn) [b-43] |  | ≥ 75 |  | 151 to 154

Row | Compound | pest or weed control at 125 ppm [1] [%] | pest or weed control at 100 ppm [2] [%] | Control value [2] | melting point [°C]
41 | Cc1nc2ccc(OC(c3cc(/C=N/OCC4CC4)c(F)cn3)c3nnco3)cc2s1 (stereo not drawn) [b-49] | ≥ 75 | ≥ 75 |  | 
42 | c1ccc(-c2ccnc(C(Oc3ccc4nnsc4c3)c3nnco3)c2)cc1 (stereo not drawn) [b-51] | ≥ 75 | ≥ 75 |  | 
43 | CCc1cc(OC(c2cc(/C=N/OC)c(Br)cn2)c2nnco2)cc2sc(C)nc12 (stereo not drawn) [b-52] |  | ≥ 75 |  | 160 to 161
44 | CO/N=C/c1cc(C(Oc2ccc3nc(I)sc3c2)c2nnco2)ncc1F (stereo not drawn) [b-53] |  | ≥ 75 |  | 166 to 168
45 | CO/N=C/c1cc(C(Oc2ccc3nc(OC)sc3c2)c2nnco2)ncc1F (stereo not drawn) [b-54] |  | ≥ 75 |  | 134 to 136
46 | CO/N=C/c1cc(C(Oc2cc(Br)c3ncsc3c2)c2nnco2)ncc1F (stereo not drawn) [b-56] | ≥ 75 |  |  | 170 to 172
47 | CO/N=C/c1cc(C(Oc2ccc3ncsc3c2)c2nnco2)ncc1C (stereo not drawn) [b-59] |  | ≥ 75 |  | 
48 | CO/N=C/c1cc(C(Oc2ccc3ncsc3c2)c2nnco2)ncc1[S+](C)[O-] (stereo not drawn) [b-61] |  | ≥ 75 |  | 85 to 88
49 | C(=N\OCc1nnco1)/c1ccnc(C(Oc2ccc3ncsc3c2)c2nnco2)c1 (stereo not drawn) [b-67] | ≥ 75 |  |  | 
50 | C(=N\OCC1CC1)/c1ccnc(C(Oc2ccc3ncsc3c2)c2nnco2)c1 (stereo not drawn) [b-68] | ≥ 75 | ≥ 75 |  | 
51 | CCCO/N=C/c1ccnc(C(Oc2ccc3ncsc3c2)c2nnco2)c1 (stereo not drawn) [b-69] | ≥ 75 | ≥ 75 |  | 
52 | COCCO/N=C/c1ccnc(C(Oc2ccc3ncsc3c2)c2nnco2)c1 (stereo not drawn) [b-70] | ≥ 75 | ≥ 75 |  | 
53 | CO/N=C/c1cc(C(Oc2ccc3nc(C)sc3c2)c2nnco2)ncc1F (stereo not drawn) [b-71] |  |  |  | 167 to 168
54 | CO/N=C/c1cc(C(Oc2ccc3nc(C(F)F)sc3c2)c2nnco2)ncc1F (stereo not drawn) [b-72] |  | ≥ 75 |  | 143 to 144
55 | CO/N=C/c1cc(C(Oc2ccc3ncsc3c2C)c2nnco2)ncc1F (stereo not drawn) [b-77] |  | ≥ 75 |  | 108 to 110
56 | CO/N=C/c1cc(C(Oc2ccc3ncsc3c2N)c2nnco2)ncc1F (stereo not drawn) [b-78] | ≥ 75 |  |  | 
57 | C(=NOCc1ccccc1)C(Oc1ccc2ncsc2c1)c1nnco1 (stereo not drawn) [b-81] |  | ≥ 75 |  | 
58 | CCCCON=CC(Oc1ccc2ncsc2c1)c1nnco1 (stereo not drawn) [b-83] |  | ≥ 75 |  | 
59 | COCCO/N=C/c1cc(C(Oc2ccc3ncsc3c2)c2nnco2)ncc1F (stereo not drawn) [b-85] | ≥ 75 | ≥ 75 |  | 
60 | COCCO/N=C/c1cc(C(Oc2ccc3nc(C)sc3c2)c2nnco2)ncc1F (stereo not drawn) [b-86] | ≥ 75 | ≥ 75 |  | 
